Consider eleven compounds from ChEMBL document CHEMBL1201862, “PubChem BioAssay data set” (2004).

Test systems include A549; RPMI-8226; SR; NCI-H460; SK-OV-3; HT-29; OVCAR-4; UACC-257; M14; SK-MEL-5; SF-268; SN12C; SK-MEL-2; TK-10; HCT-15; COLO 205; T47D; MDA-MB-231; PC-3; MCF7.
What all share (test): NCI anticancer screen, dose series, 48 h

SMILES strings stand for the structures.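 Interpolation was linear, between the two tested concentrations surrounding the appropriate level; five concentrations were tested over 48 hours in 96-well plates. GI50 = concentration required for 50% inhibition of growth.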 Active and inactive are the calls of the source. No stated cut-off is given here; in the data, active = GI50 up to about 1.1 µM and inactive = higher. Some results are limits rather than exact numbers.

On to `CCCCCCCCCCCC(=O)OCC1OC(n2cc(F)c(=O)[nH]c2=O)C(NC(=O)OCc2ccccc2)C(OC(=O)CCCCCCCCCCC)C1O` (configuration not stated), for which the GI50 in the assay with A549, with RPMI-8226, in the assay on SR, with NCI-H460, in the assay on SK-OV-3 and in the assay on HT-29 was > 100 µM (inactive) each time. Moreover, the GI50 in the assay on OVCAR-4, in the assay with UACC-257, in the assay on M14, in the assay with SK-MEL-5, with SF-268 and in the assay with SN12C was > 100 µM (inactive) in each case. Further, the GI50 in the assay on SK-MEL-2 is > 100 µM (inactive); with TK-10, > 100 µM (inactive); in the assay with HCT-15, more than 100 µM; in the assay on COLO 205 it was > 100 µM (inactive).
On to `COC(=O)C1=C(OC(=O)/C(=C/c2c(F)cccc2F)c2ccccc2)C(C(=O)OC)[C@@]2(O)[C@@H](C(=O)OC)[C@H](C)C[C@@H]1[C@@H]2C(=O)OC` (some centres not stated), for which the GI50 in the assay on A549 is 86.3 µM (inactive); with T47D, > 100 µM (inactive); in the assay with NCI-H460 it was > 100 µM (inactive); with SK-OV-3, > 100 µM (inactive); in the assay on HT-29 it was > 100 µM (inactive); in the assay with OVCAR-4, > 100 µM (inactive). Further, the GI50 in the assay on UACC-257, in the assay on MDA-MB-231, in the assay on M14, with SF-268, with SN12C and with SK-MEL-2 was > 100 µM (inactive) each time. In addition, the GI50 was > 100 µM (inactive) with TK-10, more than 100 µM with HCT-15, > 100 µM (inactive) with COLO 205 and > 100 µM (inactive) in the assay with PC-3.
On to `O=c1[nH]c2nccn2c2c1SCCN2`, for which the GI50 in the assay on A549, in the assay on MCF7, in the assay with RPMI-8226, in the assay with T47D, in the assay with SR and in the assay on NCI-H460 was > 100 µM (inactive) throughout. For the same compound, the GI50 in the assay with HT-29, in the assay with OVCAR-4, with UACC-257, in the assay with M14, in the assay on SK-MEL-5 and with SF-268 was > 100 µM (inactive) in each case. Besides, the GI50 was > 100 µM (inactive) in the assay on SN12C; > 100 µM (inactive) in the assay on SK-MEL-2; > 100 µM (inactive) in the assay on TK-10; more than 100 µM in the assay on HCT-15; > 100 µM (inactive) in the assay with COLO 205; > 100 µM (inactive) with PC-3.
As to `O=C1C(=Cc2cccc(O)c2)N=C(c2ccccc2)N1n1c(-c2ccccc2)nc2ccccc2c1=O`, the GI50 in the assay on A549 is 36.9 µM (inactive); in the assay on RPMI-8226, 17.4 µM (inactive); with T47D it was 34.9 µM (inactive); in the assay with SR, 16.4 µM (inactive); in the assay with NCI-H460 it was 23.6 µM (inactive); in the assay with SK-OV-3, 33.3 µM (inactive). Moreover, the GI50 with HT-29 was 32.6 µM (inactive); in the assay on OVCAR-4 it was 29.6 µM (inactive); in the assay on UACC-257 it was 29 µM (inactive); in the assay on MDA-MB-231, 36.9 µM (inactive); in the assay with M14, 37.2 µM (inactive); in the assay with SK-MEL-5 it was 23.7 µM (inactive). For the same compound, the GI50 was 25 µM (inactive) with SF-268; 34.1 µM (inactive) in the assay with SN12C; 48.3 µM (inactive) in the assay on TK-10; 34.7 µM in the assay with HCT-15; 31.4 µM (inactive) with COLO 205; 23.8 µM (inactive) with PC-3.
Consider `COC(=O)C(C(=O)C(=O)Nc1c(C)cccc1C)c1cnc2ccccc2n1` (configuration not stated), for which the GI50 in the assay with A549, in the assay with RPMI-8226, in the assay with SR, in the assay on NCI-H460, with SK-OV-3 and with HT-29 was > 100 µM (inactive) each time. Also, the GI50 in the assay with OVCAR-4, in the assay with UACC-257, in the assay on M14, in the assay with SK-MEL-5, with SF-268 and in the assay with SN12C was > 100 µM (inactive) throughout. Moreover, the GI50 with SK-MEL-2 is > 100 µM (inactive); in the assay on TK-10, > 100 µM (inactive); with HCT-15, more than 100 µM; with COLO 205, > 100 µM (inactive).
Consider `CCN(CC)CCSc1c2ccccc2nc2cc(NCC(=O)Nc3ccccc3-c3ccccc3NC(=O)CNc3ccc4c(SCCN(CC)CC)c5ccccc5nc4c3)ccc12`, for which the GI50 in the assay with A549 was > 100 µM (inactive); with RPMI-8226, 53.7 µM (inactive); with SR it was 34.1 µM (inactive); in the assay on NCI-H460 it was > 100 µM (inactive); in the assay with SK-OV-3, > 100 µM (inactive); in the assay on HT-29 it was > 100 µM (inactive). Besides, the GI50 is > 88.9 µM (inactive) in the assay on OVCAR-4; > 100 µM (inactive) in the assay on UACC-257; > 100 µM (inactive) in the assay with M14; > 100 µM (inactive) in the assay with SK-MEL-5; > 100 µM (inactive) with SF-268; > 100 µM (inactive) with SN12C. In addition, the GI50 in the assay with SK-MEL-2 is > 100 µM (inactive); in the assay on TK-10 it was > 100 µM (inactive); with HCT-15, more than 100 µM; in the assay with COLO 205 it was > 35.2 µM (inactive).
Consider `COC(=O)/C(=N\NC(=O)C[N+](C)(C)C)C(C(=O)OC)C(=O)C(=O)Nc1ccccc1C(N)=O` (configuration not stated), for which the GI50 in the assay on A549, with RPMI-8226, in the assay with SR, in the assay on NCI-H460, with SK-OV-3 and in the assay with HT-29 was > 100 µM (inactive) in each case. Further, the GI50 in the assay on OVCAR-4, in the assay with UACC-257, in the assay with M14, with SK-MEL-5, with SF-268 and in the assay with SN12C was > 100 µM (inactive) throughout. Besides, the GI50 with SK-MEL-2 was > 100 µM (inactive); in the assay with TK-10 it was > 100 µM (inactive); with HCT-15, more than 100 µM; with COLO 205, > 100 µM (inactive).
Turning to `Clc1ccc(-c2nnc(C34CC5CC(CC(C5)C3)C4)o2)cc1`, the GI50 with A549, with RPMI-8226, in the assay with T47D, in the assay with SR, with NCI-H460 and with SK-OV-3 was > 100 µM (inactive) in each case. For the same compound, the GI50 in the assay on HT-29, with OVCAR-4, with UACC-257, in the assay on MDA-MB-231, in the assay on M14 and with SK-MEL-5 was > 100 µM (inactive) each time. Also, the GI50 in the assay on SF-268 is > 100 µM (inactive); in the assay with SN12C, > 100 µM (inactive); in the assay with SK-MEL-2, > 100 µM (inactive); in the assay on HCT-15, more than 100 µM; in the assay on COLO 205, > 100 µM (inactive); in the assay with PC-3, > 100 µM (inactive).
In the case of `CC(O[Si](c1ccccc1)(c1ccccc1)C(C)(C)C)[C@H](NC(=O)OC(C)(C)C)C(=O)O[Si](c1ccccc1)(c1ccccc1)C(C)(C)C` (some centres not stated), the GI50 in the assay on A549 was 11 µM (inactive); in the assay on MCF7, 17.9 µM (inactive); in the assay on RPMI-8226 it was 10.9 µM (inactive); in the assay on T47D it was 5.41 µM (inactive); in the assay on SR it was 12.3 µM (inactive); in the assay on NCI-H460 it was 11.5 µM (inactive). In addition, the GI50 in the assay on SK-OV-3 was 16.3 µM (inactive); in the assay with HT-29, 11.7 µM (inactive); in the assay on OVCAR-4, 1.46 µM (inactive); in the assay on UACC-257, 14.9 µM (inactive); in the assay with M14, 15.7 µM (inactive); in the assay with SK-MEL-5, 15.7 µM (inactive). Moreover, the GI50 is 14.3 µM (inactive) with SF-268; 16.9 µM (inactive) in the assay with TK-10; 5.24 µM in the assay on HCT-15; 13.2 µM (inactive) in the assay with COLO 205; 8.38 µM (inactive) in the assay with PC-3.
Take `CC1(C)OCC(COC(=O)NCn2cc(-c3ccccc3)nn2)O1` (configuration not stated): the GI50 with A549, in the assay with MCF7, with RPMI-8226, with SR, in the assay with NCI-H460 and in the assay with HT-29 was > 100 µM (inactive) each time. Also, the GI50 in the assay with OVCAR-4, in the assay with UACC-257, in the assay with MDA-MB-231, in the assay on M14, in the assay on SK-MEL-5 and in the assay with SF-268 was > 100 µM (inactive) throughout. In addition, the GI50 in the assay on SN12C is > 100 µM (inactive); with SK-MEL-2 it was > 100 µM (inactive); in the assay with TK-10 it was > 100 µM (inactive); with HCT-15, more than 100 µM; with COLO 205, > 100 µM (inactive); in the assay with PC-3, > 100 µM (inactive).
Regarding `O=C(O)c1ccccc1/C=C1\Cc2ccccc2C1=O`, the GI50 was > 100 µM (inactive) in the assay on A549; > 100 µM (inactive) in the assay on MCF7; 71.4 µM (inactive) with RPMI-8226; > 100 µM (inactive) with T47D; > 100 µM (inactive) with SR; > 100 µM (inactive) with NCI-H460. Further, the GI50 in the assay on HT-29 is 38.2 µM (inactive); with OVCAR-4 it was > 100 µM (inactive); in the assay with UACC-257 it was > 100 µM (inactive); in the assay on M14, > 100 µM (inactive); in the assay with SK-MEL-5, 47.2 µM (inactive); in the assay with SF-268, > 100 µM (inactive). The GI50 in the assay with SN12C is > 100 µM (inactive); with SK-MEL-2, 67.1 µM (inactive); with TK-10, > 100 µM (inactive); in the assay with HCT-15, more than 100 µM; in the assay on COLO 205 it was 48.4 µM (inactive); in the assay with PC-3 it was > 100 µM (inactive).
